pKi: −log10 of the molar value. Activity calls are given as the source filed them. No cut-off for these calls is given here. Starred links: 1 amine or outer side, 2 acyl side, 3 side chain; linkers in the order of their positions; H or OH if unused. Non-standard residues stand in square brackets, D forms with d. Residues, ends and D or L forms follow the SMILES beside them. X2 = N/C(=N\CC(F)(F)F)NCCC[C@H](N[*:1])C(=O)[*:2]; X3 = N/C(=N\Cc1ccccc1)NCCC[C@H](N[*:1])C(=O)[*:2]; X4 = NC(NCCC[C@H](N[*:1])C(=O)[*:2])=[N+]1CCCC1; X5 = N/C(=N\C1CC1)NCCC[C@H](N[*:1])C(=O)[*:2]; X1 = N/C(=N\O)NCCC[C@H](N[*:1])C(=O)[*:2]
Experiments:
[1] = target: T1, Protein arginine N-methyltransferase 1 (Homo sapiens, UniProt Q99873); experiment: Activity at PRMT1 (unknown origin) using AdoMet assessed as formation of MMA and aDMA at 0.25 to 200 uM after 60 to 120 mins by LC-MS/MS analysis
Target sequence in this assay (Q99873 whole entry, looked up): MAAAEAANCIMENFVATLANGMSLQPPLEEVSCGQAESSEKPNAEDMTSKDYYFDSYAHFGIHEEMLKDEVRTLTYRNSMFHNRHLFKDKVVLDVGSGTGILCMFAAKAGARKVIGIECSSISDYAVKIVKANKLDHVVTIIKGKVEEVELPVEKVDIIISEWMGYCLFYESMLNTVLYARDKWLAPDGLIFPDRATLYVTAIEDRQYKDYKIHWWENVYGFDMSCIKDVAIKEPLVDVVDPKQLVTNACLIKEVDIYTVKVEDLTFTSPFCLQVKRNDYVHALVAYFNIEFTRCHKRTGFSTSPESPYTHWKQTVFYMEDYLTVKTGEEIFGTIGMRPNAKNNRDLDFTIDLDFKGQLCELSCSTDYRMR

[2] = target: T2, Histone-arginine methyltransferase CARM1 (Homo sapiens) (UniProt Q86X55); experiment: Activity at PRMT4 (unknown origin) using AdoMet assessed as formation of MMA and aDMA at 0.25 to 200 uM after 60 to 120 mins by LC-MS/MS analysis
T2 sequence (whole entry): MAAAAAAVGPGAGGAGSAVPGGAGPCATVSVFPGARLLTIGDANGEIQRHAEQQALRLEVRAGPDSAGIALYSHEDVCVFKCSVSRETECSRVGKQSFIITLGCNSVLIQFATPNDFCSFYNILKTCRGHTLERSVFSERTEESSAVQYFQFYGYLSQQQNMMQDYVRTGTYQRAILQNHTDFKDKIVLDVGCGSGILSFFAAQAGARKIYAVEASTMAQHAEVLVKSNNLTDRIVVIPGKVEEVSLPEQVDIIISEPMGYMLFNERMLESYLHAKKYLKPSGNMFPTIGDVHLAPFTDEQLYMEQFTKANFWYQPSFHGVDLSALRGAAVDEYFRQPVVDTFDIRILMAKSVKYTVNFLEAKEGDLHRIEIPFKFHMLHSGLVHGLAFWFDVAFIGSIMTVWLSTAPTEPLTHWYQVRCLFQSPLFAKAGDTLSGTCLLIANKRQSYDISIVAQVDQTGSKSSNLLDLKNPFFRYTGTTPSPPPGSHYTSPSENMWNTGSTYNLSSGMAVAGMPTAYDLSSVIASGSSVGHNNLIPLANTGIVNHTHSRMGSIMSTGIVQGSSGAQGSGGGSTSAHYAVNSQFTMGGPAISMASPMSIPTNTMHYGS

[3] = organism: Homo sapiens; experiment: Ratio of PRMT4 (unknown origin) to PRMT1 (unknown origin)
[4] = target: T3, Protein arginine N-methyltransferase 6 (Homo sapiens, UniProt Q96LA8); experiment: Inhibition of PRMT6 (unknown origin) using AdoMet by Michaelis-Menten equation analysis
Target sequence in this assay (Q96LA8 whole entry): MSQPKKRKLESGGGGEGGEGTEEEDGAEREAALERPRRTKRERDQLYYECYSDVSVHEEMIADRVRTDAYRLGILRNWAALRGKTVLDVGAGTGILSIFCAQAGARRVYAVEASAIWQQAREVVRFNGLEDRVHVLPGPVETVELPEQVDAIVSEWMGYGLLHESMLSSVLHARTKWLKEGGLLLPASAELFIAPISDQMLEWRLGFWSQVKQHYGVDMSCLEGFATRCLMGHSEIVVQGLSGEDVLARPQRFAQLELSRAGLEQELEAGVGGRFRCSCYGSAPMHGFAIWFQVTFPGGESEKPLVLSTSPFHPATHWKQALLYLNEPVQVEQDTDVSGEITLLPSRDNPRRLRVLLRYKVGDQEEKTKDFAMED

[5] = target: T2, Histone-arginine methyltransferase CARM1 (Homo sapiens); experiment: Activity at PRMT4 (unknown origin) using [methyl-14C]AdoMet at 0.25 to 200 uM after 60 to 120 mins by tricine gel electrophoresis
[6] = target: T1, Protein arginine N-methyltransferase 1; experiment: Activity at PRMT1 (unknown origin) using [methyl-14C]AdoMet at 0.25 to 200 uM after 60 to 120 mins by tricine gel electrophoresis
Target sequence in this assay (Q99873 whole entry, looked up): as the sequence (Q99873 whole entry, looked up) above

[7] = target: T3, Protein arginine N-methyltransferase 6; experiment: Activity at PRMT6 (unknown origin) using [methyl-14C]AdoMet at 0.25 to 200 uM after 60 to 120 mins by tricine gel electrophoresis
Target sequence in this assay (Q96LA8 whole entry, looked up): as the sequence (Q96LA8 whole entry) above

[8] = target: T3, Protein arginine N-methyltransferase 6; experiment: Activity at PRMT6 (unknown origin) using AdoMet assessed as formation of MMA and aDMA at 0.25 to 200 uM after 60 to 120 mins by LC-MS/MS analysis
Target sequence in this assay (Q96LA8 whole entry, looked up): as the sequence (Q96LA8 whole entry) above

[9] = organism: Homo sapiens; experiment: Ratio of PRMT4 (unknown origin) to PRMT6 (unknown origin)
[10] = target: T1, Protein arginine N-methyltransferase 1; experiment: Inhibition of PRMT1 (unknown origin) using AdoMet by Michaelis-Menten equation analysis
Target sequence in this assay (Q99873 whole entry): as the sequence (Q99873 whole entry, looked up) above

[11] = target: T3, Protein arginine N-methyltransferase 6; experiment: Activity at PRMT6 (unknown origin) assessed as methylation of substituted arginines by LC-MS/MS analysis
Target sequence in this assay (Q96LA8 whole entry, looked up): as the sequence (Q96LA8 whole entry) above

[12] = target: T1, Protein arginine N-methyltransferase 1; experiment: Activity at PRMT1 (unknown origin) assessed as methylation of substituted arginines by LC-MS/MS analysis
Target sequence in this assay (Q99873 whole entry, looked up): as the sequence (Q99873 whole entry, looked up) above

[13] = target: T3, Protein arginine N-methyltransferase 6; experiment: Activity at 50 to 800 nM of PRMT6 (unknown origin) assessed as increase of Vmax up to 200 uM relative to control
Target sequence in this assay (Q96LA8 whole entry, looked up): as the sequence (Q96LA8 whole entry) above

[14] = target: T1, Protein arginine N-methyltransferase 1; experiment: Activity at 50 to 800 nM of PRMT1 (unknown origin) up to 200 uM
Target sequence in this assay (Q99873 whole entry, looked up): as the sequence (Q99873 whole entry, looked up) above

[15] = target: T1, Protein arginine N-methyltransferase 1; experiment: Inhibition of 50 to 800 nM of PRMT1 (unknown origin) up to 200 uM
Target sequence in this assay (Q99873 whole entry, looked up): as above

[16] = target: T1, Protein arginine N-methyltransferase 1; experiment: Activity at 800 nM of PRMT1 (unknown origin) at 100 to 200 uM
Target sequence in this assay (Q99873 whole entry, looked up): as above

[17] = target: T1, Protein arginine N-methyltransferase 1; experiment: Activity at 50 to 100 nM of PRMT1 (unknown origin) up to 200 uM
[18] = target: T1, Protein arginine N-methyltransferase 1; experiment: Inhibition of 50 nM of PRMT1 (unknown origin) up to 200 uM
[19] = target: T3, Protein arginine N-methyltransferase 6; experiment: Activity at 50 to 800 nM of PRMT6 (unknown origin) assessed as increase of Km up to 200 uM relative to control
Target sequence in this assay (Q96LA8 whole entry, looked up): as the sequence (Q96LA8 whole entry) above

[20] = target: T3, Protein arginine N-methyltransferase 6; experiment: Activity at 100 to 400 nM of PRMT6 (unknown origin) assessed as increase of Vmax up to 200 uM relative to control
Target sequence in this assay (Q96LA8 whole entry, looked up): as the sequence (Q96LA8 whole entry) above

[21] = target: T3, Protein arginine N-methyltransferase 6; experiment: Inhibition of 50 to 100 nM of PRMT6 (unknown origin) up to 200 uM
[22] = target: T3, Protein arginine N-methyltransferase 6; experiment: Activity at 400 nM of PRMT6 (unknown origin) using histone H3 tail peptide
[23] = target: T3, Protein arginine N-methyltransferase 6; experiment: Activity at 50 to 100 nM of PRMT6 (unknown origin) up to 200 uM
[24] = target: T3, Protein arginine N-methyltransferase 6; experiment: Activity at PRMT6 (unknown origin) at 100 uM using => 5 uM of AdoMet
[25] = target: T1, Protein arginine N-methyltransferase 1; experiment: Activity at PRMT1 (unknown origin) at 100 uM using => 5 uM of AdoMet

| Activity [1] | Activity [2] | Selectivity ratio [3] | pKi [4] | Activity [5] | Activity [6] | Activity [7] | Activity [8] | Selectivity ratio [9] | pKi [10] | Activity [11] | Activity [12] | Compound | other results |
| --- | --- | --- | --- | --- | --- | --- | --- | --- | --- | --- | --- | --- | --- |
| Active | Active | 10 | 4.20 | Active | Active | Active | Active | 10 | 5.57 | – | – | N=C(N)NCCC[C@H](NC(=O)CN)C(=O)N[C@@H](CCCCN)C(=O)N[C@@H](CCCCN)C(=O)N[C@@H](CCCN/C(N)=N/O)C(=O)N[C@@H](CCCNC(=N)N)C(=O)N[C@@H](CCC(N)=O)C(=O)N[C@@H](CCCNC(=N)N)C(=O)N[C@@H](CCCNC(=N)N)C(=O)N[C@@H](CCCNC(=N)N)C(=O)N1CCC[C@H]1C(=O)N1CCC[C@H]1C(=O)N[C@@H](CCC(N)=O)C(=O)O (H-GRKK[X1]RQRRRPPQ-OH) | – |
| – | – | – | 4.36 | Active | Active | Active | – | – | 5.53 | inactive | inactive | N=C(N)NCCC[C@H](NC(=O)CN)C(=O)N[C@@H](CCCCN)C(=O)N[C@@H](CCCCN)C(=O)N[C@@H](CCCN/C(N)=N/CC(F)(F)F)C(=O)N[C@@H](CCCNC(=N)N)C(=O)N[C@@H](CCC(N)=O)C(=O)N[C@@H](CCCNC(=N)N)C(=O)N[C@@H](CCCNC(=N)N)C(=O)N[C@@H](CCCNC(=N)N)C(=O)N1CCC[C@H]1C(=O)N1CCC[C@H]1C(=O)N[C@@H](CCC(N)=O)C(=O)O (H-GRKK[X2]RQRRRPPQ-OH) | – |
| – | – | – | 4.70 | Active | Active | Active | – | – | 5.57 | inactive | inactive | N=C(N)NCCC[C@H](NC(=O)CN)C(=O)N[C@@H](CCCCN)C(=O)N[C@@H](CCCCN)C(=O)N[C@@H](CCCN/C(N)=N/Cc1ccccc1)C(=O)N[C@@H](CCCNC(=N)N)C(=O)N[C@@H](CCC(N)=O)C(=O)N[C@@H](CCCNC(=N)N)C(=O)N[C@@H](CCCNC(=N)N)C(=O)N[C@@H](CCCNC(=N)N)C(=O)N1CCC[C@H]1C(=O)N1CCC[C@H]1C(=O)N[C@@H](CCC(N)=O)C(=O)O (H-GRKK[X3]RQRRRPPQ-OH) | – |
| – | – | – | < 4.00 | Active | Active | Active | – | – | 5.54 | – | – | N=C(N)NCCC[C@H](NC(=O)CN)C(=O)N[C@@H](CCCCN)C(=O)N[C@@H](CCCCN)C(=O)N[C@@H](CCCN/C(N)=N/C1CC1)C(=O)N[C@@H](CCCNC(=N)N)C(=O)N[C@@H](CCC(N)=O)C(=O)N[C@@H](CCCNC(=N)N)C(=O)N[C@@H](CCCNC(=N)N)C(=O)N[C@@H](CCCNC(=N)N)C(=O)N1CCC[C@H]1C(=O)N1CCC[C@H]1C(=O)N[C@@H](CCC(N)=O)C(=O)O (H-GRKK[X5]RQRRRPPQ-OH) | – |
| – | – | – | 4.11 | Active | Active | Active | – | – | 5.12 | inactive | inactive | N=C(N)NCCC[C@H](NC(=O)CN)C(=O)N[C@@H](CCCCN)C(=O)N[C@@H](CCCCN)C(=O)N[C@@H](CCCNC(N)=[N+]1CCCC1)C(=O)N[C@@H](CCCNC(=N)N)C(=O)N[C@@H](CCC(N)=O)C(=O)N[C@@H](CCCNC(=N)N)C(=O)N[C@@H](CCCNC(=N)N)C(=O)N[C@@H](CCCNC(=N)N)C(=O)N1CCC[C@H]1C(=O)N1CCC[C@H]1C(=O)N[C@@H](CCC(N)=O)C(=O)O (H-GRKK[X4]RQRRRPPQ-OH) | – |
| Active | Active | 10 | 4.44 | Active | Active | Active | Active | 10 | 5.12 | inactive | inactive | H-GRKKARQRRRPPQ-OH | Activity [24]: Active; Activity [25]: Active |
| Active | Active | 10 | 4.50 | Active | Active | Active | Active | 10 | 5.37 | inactive | inactive | CC/N=C(\N)NCCC[C@H](NC(=O)[C@H](CCCCN)NC(=O)[C@H](CCCCN)NC(=O)[C@H](CCCNC(=N)N)NC(=O)CN)C(=O)N[C@@H](CCCNC(=N)N)C(=O)N[C@@H](CCC(N)=O)C(=O)N[C@@H](CCCNC(=N)N)C(=O)N[C@@H](CCCNC(=N)N)C(=O)N[C@@H](CCCNC(=N)N)C(=O)N1CCC[C@H]1C(=O)N1CCC[C@H]1C(=O)N[C@@H](CCC(N)=O)C(=O)O | – |

| Compound | Activity [1] | Activity [2] | Selectivity ratio [3] | pKi [4] | Activity [5] | Activity [6] | Activity [7] | Activity [8] | Selectivity ratio [9] | pKi [10] | Activity [11] | Activity [12] | other results |
| --- | --- | --- | --- | --- | --- | --- | --- | --- | --- | --- | --- | --- | --- |
| N=C(N)NCCC[C@H](NC(=O)CN)C(=O)N[C@@H](CCCCN)C(=O)N[C@@H](CCCCN)C(=O)N[C@@H](CCCNC(=N)N)C(=O)N[C@@H](CCCNC(=N)N)C(=O)N[C@@H](CCC(N)=O)C(=O)N[C@@H](CCCNC(=N)N)C(=O)N[C@@H](CCCNC(=N)N)C(=O)N[C@@H](CCCNC(=N)N)C(=O)N1CCC[C@H]1C(=O)N1CCC[C@H]1C(=O)N[C@@H](CCC(N)=O)C(=O)O | Active | Active | 10 | 4.45 | Active | Active | Active | Active | 10 | 5.32 | – | – | fold change (FC) [13]: 9; Activity [14]: Active; inhibition [15]: inactive; Activity [16]: Active; Activity [17]: Active; inhibition [18]: inactive; fold change (FC) [19]: 87; Activity [20]: Active; inhibition [21]: inactive; Activity [22]: Active; Activity [23]: Active |
